Experimental data from patent publication US20130296390A1, “METHOD AND COMPOSITIONS FOR ENHANCING THE SAFETY OF ORALLY ADMINISTERED MAGNESIUM ALPHA-LIPOATE” (BIOLINK LIFE SCIENCES, INC., priority 2012, published 2013).
Entries after “also recorded” stand apart in the source; their conditions may differ. Values belong to the compound of their own block, whether it stands above or below them.

Key:
[1] = target: T1, sodium-dependent vitamin transporters (SMVT) (Homo sapiens, UniProt Q9Y289); details: keratinocytes, cited from earlier work; for Ki: read-out: Ki, inhibition of biotin uptake
T1 construct: in keratinocytes, the SMVT transport system; endogenous in cells; host or cells: human keratinocytes
T1 sequence (Q9Y289 1-635): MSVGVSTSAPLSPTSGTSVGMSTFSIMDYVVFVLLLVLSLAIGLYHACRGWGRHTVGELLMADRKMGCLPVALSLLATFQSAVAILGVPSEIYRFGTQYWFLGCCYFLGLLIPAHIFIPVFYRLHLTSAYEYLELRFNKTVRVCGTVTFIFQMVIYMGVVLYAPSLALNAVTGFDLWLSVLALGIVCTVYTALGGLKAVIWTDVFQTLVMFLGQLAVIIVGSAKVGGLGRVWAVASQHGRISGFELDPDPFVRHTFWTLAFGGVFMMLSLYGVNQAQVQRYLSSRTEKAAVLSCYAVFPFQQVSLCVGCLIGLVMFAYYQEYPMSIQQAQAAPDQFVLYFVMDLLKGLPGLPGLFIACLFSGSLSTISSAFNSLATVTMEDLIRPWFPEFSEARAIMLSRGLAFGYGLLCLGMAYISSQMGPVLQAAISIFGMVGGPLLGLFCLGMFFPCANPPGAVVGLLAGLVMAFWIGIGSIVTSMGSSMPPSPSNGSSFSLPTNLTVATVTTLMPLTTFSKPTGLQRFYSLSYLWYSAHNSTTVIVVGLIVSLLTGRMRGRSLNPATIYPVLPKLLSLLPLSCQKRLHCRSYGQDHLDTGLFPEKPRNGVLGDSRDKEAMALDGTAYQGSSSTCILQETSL

[2] = oral; cited from earlier work
[3] = Short and long-term toxicity studies of ALA (NOAEL); format: in vivo
Experimental: Alpha-Lipoic acid is the sole remaining component in the formulation tested in Example 1. The safety and absence of toxicity of ALA has been established in both short and long-term toxicity studies, including in vitro mutagenicity/genotoxicity studies. The no-observed adverse effect level (NOAEL) of ALA is considered to be 60 mg per kg body weight per day. […] Nonetheless, the inventor examined to a number of potential mechanisms of toxicity related to alpha-lipoate.

[4] = test system: acetyl-CoA carboxylase (EC 6.4.1.2); details: intraperitoneal ALA 8.8 mg/kg·day or 31.8 mg/kg·d, rats; wide intragroup variability; cited from earlier work
[5] = test system: second biotin transport component; details: keratinocytes, cited from earlier work
[6] = target: T2, pyruvate carboxylase (EC 6.4.1.1) (Rattus norvegicus, UniProt P52873); details: intraperitoneal ALA 8.8 mg/kg·day or 31.8 mg/kg·d, rats, compared with vehicle controls (P<0.05); cited from earlier work
T2 construct: Lipoic acid reduces the activities of biotin-dependent carboxylases in rat liver; from tissue; host or cells: rat liver
T2 sequence (P52873 21-1178): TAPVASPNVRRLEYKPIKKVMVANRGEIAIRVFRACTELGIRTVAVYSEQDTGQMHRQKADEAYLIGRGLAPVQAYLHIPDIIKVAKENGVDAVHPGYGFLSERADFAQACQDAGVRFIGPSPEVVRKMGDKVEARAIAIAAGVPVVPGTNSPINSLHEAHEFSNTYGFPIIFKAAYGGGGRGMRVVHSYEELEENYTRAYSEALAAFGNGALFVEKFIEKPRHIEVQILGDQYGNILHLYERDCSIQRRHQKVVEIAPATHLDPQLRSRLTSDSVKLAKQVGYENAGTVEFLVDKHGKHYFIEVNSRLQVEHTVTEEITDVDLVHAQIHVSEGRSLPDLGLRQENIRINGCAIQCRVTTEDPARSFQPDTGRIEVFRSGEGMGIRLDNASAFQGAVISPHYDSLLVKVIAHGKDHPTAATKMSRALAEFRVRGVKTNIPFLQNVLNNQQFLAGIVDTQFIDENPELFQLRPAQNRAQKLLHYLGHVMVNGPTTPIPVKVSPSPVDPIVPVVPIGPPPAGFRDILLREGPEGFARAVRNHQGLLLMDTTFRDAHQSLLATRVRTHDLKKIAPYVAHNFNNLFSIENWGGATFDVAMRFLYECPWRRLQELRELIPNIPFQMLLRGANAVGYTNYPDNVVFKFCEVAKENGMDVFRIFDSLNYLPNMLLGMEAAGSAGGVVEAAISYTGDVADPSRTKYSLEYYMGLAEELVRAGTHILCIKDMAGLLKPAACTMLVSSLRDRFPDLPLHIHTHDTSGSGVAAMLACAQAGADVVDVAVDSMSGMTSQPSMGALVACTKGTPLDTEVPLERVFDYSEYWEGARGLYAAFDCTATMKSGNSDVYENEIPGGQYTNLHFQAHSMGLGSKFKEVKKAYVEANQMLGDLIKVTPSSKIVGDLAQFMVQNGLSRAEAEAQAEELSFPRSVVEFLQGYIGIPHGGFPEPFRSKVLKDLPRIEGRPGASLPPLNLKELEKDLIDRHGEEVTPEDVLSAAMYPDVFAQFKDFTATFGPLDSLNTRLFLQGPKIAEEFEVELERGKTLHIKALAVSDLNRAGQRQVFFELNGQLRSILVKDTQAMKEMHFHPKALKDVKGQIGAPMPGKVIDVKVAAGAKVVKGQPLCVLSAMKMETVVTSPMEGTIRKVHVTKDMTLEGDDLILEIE

[7] = cited from earlier work
[8] = intravenous, acute 100 mg/kg dose, rat; cited from earlier work
[9] = oral, chronic daily doses about 30 mg/kg to over 2,000 mg/kg body weight; cited from earlier work
[10] = in vivo; cited from earlier work
[11] = target: T3, β-methylcrotonyl-CoA carboxylase (EC 6.4.1.4) (Rattus norvegicus, UniProt Q5I0C3+Q5XIT9); details: intraperitoneal ALA 8.8 mg/kg·day or 31.8 mg/kg·d, rats, compared with vehicle controls (P<0.05); cited from earlier work
T3 construct: Lipoic acid reduces the activities of biotin-dependent carboxylases in rat liver; from tissue; host or cells: rat liver
T3 sequence (Q5I0C3 39-715): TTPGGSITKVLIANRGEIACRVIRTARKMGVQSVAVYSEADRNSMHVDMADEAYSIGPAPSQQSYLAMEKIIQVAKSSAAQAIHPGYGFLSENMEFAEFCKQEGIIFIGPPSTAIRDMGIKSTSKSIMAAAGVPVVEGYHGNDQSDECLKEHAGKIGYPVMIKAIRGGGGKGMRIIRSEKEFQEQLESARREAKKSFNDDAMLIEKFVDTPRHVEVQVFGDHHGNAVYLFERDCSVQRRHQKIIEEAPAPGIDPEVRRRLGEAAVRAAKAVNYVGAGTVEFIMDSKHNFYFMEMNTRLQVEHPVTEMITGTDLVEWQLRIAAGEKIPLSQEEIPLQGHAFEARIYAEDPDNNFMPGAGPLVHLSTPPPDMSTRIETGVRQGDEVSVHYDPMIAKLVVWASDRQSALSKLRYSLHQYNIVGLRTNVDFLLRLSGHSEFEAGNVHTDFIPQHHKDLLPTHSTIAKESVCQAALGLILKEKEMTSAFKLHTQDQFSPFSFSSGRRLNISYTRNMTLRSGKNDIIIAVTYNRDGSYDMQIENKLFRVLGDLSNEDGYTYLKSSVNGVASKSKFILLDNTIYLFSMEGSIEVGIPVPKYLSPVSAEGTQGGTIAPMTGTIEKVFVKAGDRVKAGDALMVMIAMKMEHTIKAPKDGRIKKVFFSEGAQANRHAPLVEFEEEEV
T3 sequence (Q5XIT9 23-563): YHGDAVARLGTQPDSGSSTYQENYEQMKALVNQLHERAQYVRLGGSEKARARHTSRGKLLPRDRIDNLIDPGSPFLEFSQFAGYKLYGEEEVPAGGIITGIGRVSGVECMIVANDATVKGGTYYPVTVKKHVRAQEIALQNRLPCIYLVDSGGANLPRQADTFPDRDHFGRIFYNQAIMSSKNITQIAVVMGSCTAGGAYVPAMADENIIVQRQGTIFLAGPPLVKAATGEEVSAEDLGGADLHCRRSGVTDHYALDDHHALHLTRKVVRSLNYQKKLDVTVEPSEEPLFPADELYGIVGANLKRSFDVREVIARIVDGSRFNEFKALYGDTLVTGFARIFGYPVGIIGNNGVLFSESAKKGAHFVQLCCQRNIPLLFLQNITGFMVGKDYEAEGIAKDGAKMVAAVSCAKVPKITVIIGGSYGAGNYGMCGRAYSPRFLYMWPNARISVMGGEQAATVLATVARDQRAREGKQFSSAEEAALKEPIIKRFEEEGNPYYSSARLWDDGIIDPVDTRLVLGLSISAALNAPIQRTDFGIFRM

[12] = Physicochemical description
[13] = test system: mouse model of chronic kidney disease (CKD); experiment: Example 1: phosphate binders in diet of LDLR−/− mouse model of CKD; format: in vivo; details: chronic daily dose of 0.5% or 1.5% (by weight) in the diet, oral
Description: This study critically examined the in vivo efficacy of phosphate binding by a combination of phosphate binders, magnesium R-(+)-α-lipoate and calcium succinate monohydrate, in a mouse model of chronic kidney disease (CKD). The model is partial renal ablation in the LDL receptor-deficient (LDLR−/−) mouse that is fed high fat/cholesterol diets. […] In these animals, CKD causes intensification of vascular calcification (VC).
Materials: Calcium succinate monohydrate (CaSucc) and magnesium R-(+)-α-lipoate (MgRALA) having high purity and freedom from contaminating trace metals were provided by BioLink Life Sciences, Inc. Other chemicals were purchased from Sigma Aldrich Company (St. Louis, Mo.). […]
Two sets of animals in the group receiving magnesium alpha-lipoate were treated according to the protocol. […] Myocardin, Smad6, sm22α, calponin, αSMA, BMP-2, RUNX2/Cbfa1, osteopontin and osteocalcin message levels were measured by real time RT-PCR. Osteocalcin, type 1 collagen and αSMA were determined by immunohistochemistry. MGP levels and specifically γ-carboxylated MGP were determined with a specific antibody. […]
Blood Tests: Serum was analyzed on the day of blood draw for blood urea nitrogen [BUN], cholesterol, calcium, glucose and phosphate by standard autoanalyzer laboratory methods.

Compound: O=C(O)CCCC[C@@H](S)CCS (racemic) [dihydrolipoic acid]
Ki [1]: 11.4 µM

Compound: O=C(O)CCCCC1CCSS1 (stereo not drawn) [ALA, alpha-lipoic acid]
fraction of orally administered ALA absorbed into cells and the systemic circulation [2]: greater than 90%
time in which most of the orally administered ALA is absorbed [2]: two
NOAEL equivalent for an adult man ([3]; adult man): 4.2 grams of ALA per day
NOAEL equivalent for an adult woman ([3]; adult woman): 3 grams of ALA per day
decrease of acetyl carboxylase activity [4]: ≤ 43%
inhibition of second biotin transport component [5]: not inhibited
reduction of pyruvate carboxylase activity [6]: 28-36%
toxicities in human studies ([7]; normal subjects and those with chronic kidney disease): no significant toxicities have been observed
overt adverse effects in humans ([7]; oral, total doses 100 mg to 1800 mg daily for months or years): without overt adverse effects; also recorded: no overt adverse effects
S-adenosylhomocysteine [8]: elevated
S-adenosylmethionine [8]: depleted
overt adverse effects in animals [9]: without overt adverse effects
no-observed adverse effect level (NOAEL) [10]: 60 mg per kg body weight per day
Ki [1]: 4.6 µM
reduction of β-methylcrotonyl carboxylase activity [11]: 28-36%

Compound: O=C(O)CCCCC1CCSS1 (stereo not drawn) [Magnesium a-lipoate, magnesium alpha-lipoate]
stability and hygroscopicity of the powder [12]: stable, non-hygroscopic

Compound: O=C(O)CCCC[C@@H]1SC[C@@H]2NC(=O)N[C@@H]21 [biotin, D-biotin]
Ki ([5]; read-out: Ki, second biotin transport component, saturable at very low biotin concentrations): 0.0026 ± 0.0001 µM
Michaelis-Menten constant for biotin ([1]; SMVT transport system): 22.7 ± 1.0 µM
maximal velocity ([1]; SMVT transport system): 163.6±3.5 pmol per five minutes per milligram of protein

Compound: C[C@@H]1NC(=O)N[C@@H]1CCCCCC(=O)O [desthiobiotin]
Ki [1]: 15.2 µM

stability and hygroscopicity of the powder [12]: stable, non-hygroscopic
Compound: O=C(O)CCCC[C@@H]1CCSS1 [magnesium R-(+)-alpha-lipoate, Magnesium R-(+)-alpha-lipoate]
overt adverse effects (FIG. 1) [13]: hair loss and skin disorders

Compound: CC(C)(CO)[C@@H](O)C(=O)NCCC(=O)O [panthothenic acid]
inhibition of second biotin transport component [5]: not inhibited
Ki [1]: 1.2 µM
